Measured values published in patent US20260042827A1, “ANTI-WT1 ANTIGEN-BINDING PROTEINS AND USES THEREOF” (UNIVERSITY HEALTH NETWORK, priority 2022, published 2026).
Where a chain is given by its changes, count along the chain named.

Columns and labels:
DP2 = target: T1, DP2 (Homo sapiens, UniProt P04440+P20036, A65V/A84D/A85E/K98E); experiment: T2 cell-based competitive binding assay; details: T2 cells transduced with DP2; reference peptide Oxy271-287
T1 sequence (P20036 29-260): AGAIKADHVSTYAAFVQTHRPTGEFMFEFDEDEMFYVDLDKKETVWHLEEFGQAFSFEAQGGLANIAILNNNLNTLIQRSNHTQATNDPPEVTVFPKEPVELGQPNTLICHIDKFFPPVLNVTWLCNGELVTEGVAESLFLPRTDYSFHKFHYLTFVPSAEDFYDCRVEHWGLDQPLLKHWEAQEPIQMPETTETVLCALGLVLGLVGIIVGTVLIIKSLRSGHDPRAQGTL
T1 sequence (P04440 30-258 A65V/A84D/A85E/K98E): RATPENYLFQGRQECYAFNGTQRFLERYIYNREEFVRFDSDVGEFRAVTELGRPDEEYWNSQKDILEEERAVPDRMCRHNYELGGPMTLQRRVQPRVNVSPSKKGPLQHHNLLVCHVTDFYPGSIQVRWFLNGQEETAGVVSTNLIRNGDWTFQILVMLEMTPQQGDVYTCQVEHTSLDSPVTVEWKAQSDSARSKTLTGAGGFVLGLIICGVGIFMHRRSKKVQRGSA

DP4 = target: T2, DP4 (Homo sapiens, UniProt P04440+P20036); experiment: T2 cell-based competitive binding assay; details: T2 cells transduced with DP4; reference peptide Oxy271-287
T2 construct: expressed in transfected cells; host or cells: T2 cells, retrovirally transduced (pMX vector)
T2 sequence (P20036 29-260): T1 sequence (P20036 29-260)
T2 sequence (P04440 30-258): T1 sequence (P04440 30-258 A65V/A84D/A85E/K98E) with V36A, D55A, E56A, E69K

Sequence	IC50 value, displacement of reference peptide (DP2)	IC50 value, displacement of reference peptide (DP4)
CMTWNQMNL [WT1235-243, known HLA-A2 restricted peptide, negative control, reference compound]	failed to displace reference peptide at any tested concentration	failed to displace reference peptide at any tested concentration
PGCNKRYFKLSHLQMHSRKHT [WT1328-348]	comparable to TT947-967	comparable to TT947-967
